Results published in article PMC3962490, “The Yeast Ess1 Prolyl Isomerase Controls Swi6 and Whi5 Nuclear Localization” (G3: Genes|Genomes|Genetics, 2014).
Where two headings read alike, the source gives them in different places. Non-standard residues stand in square brackets, D forms with d. Residues, ends and D or L forms follow the SMILES beside them. *: point of attachment. Biotin = O=C1N[C@H]2[C@H](CS[C@H]2CCCCC(=O)*)N1; pS = N[C@@H](COP(=O)(O)O)C(=O)O

Target: T1, Recombinant S. cerevisiae Ess1 protein (Saccharomyces cerevisiae, UniProt P22696)
T1 construct: made in house; host or cells: Escherichia coli
T1 sequence (P22696 1-170): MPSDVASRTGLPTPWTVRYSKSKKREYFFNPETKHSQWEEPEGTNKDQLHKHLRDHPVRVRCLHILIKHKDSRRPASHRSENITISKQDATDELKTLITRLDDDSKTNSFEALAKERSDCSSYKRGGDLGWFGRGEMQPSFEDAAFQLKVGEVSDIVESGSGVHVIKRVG
Assay: Biolayer interferometry (BLI) kinetic assays of Ess1/peptide binding
Conditions: for Ess1 binding (in words) / Kd / kon: BLI; for Ess1 binding (in words): Ess1 3, 10, 30 μM, Figure 6, S1, S3; for kon: slope of kobs vs Ess1 concentration (Fig. S2), read-out: ka (association rate); for koff: read-out: kd (dissociation rate)
Description: Biolayer interferometry (BLI) was measured at 24° with an Octet RED system (FortéBio), essentially as described ([Shah and Duncan 2013]; [Shah et al. 2013]). Peptides were synthesized with N-terminal biotinylation (NEOBioLab). Phosphoserine residues were incorporated during synthesis and all peptides were purified to >95% purity by high-performance liquid chromatography (NEOBioLab). Each peptide included 4-6 N-terminal residues (typically [Gly-Gly-Ser]2) as a flexible linker to facilitate binding of Ess1 protein to the surface-immobilized peptide. BLI assays were carried out in 20 mM Tris-HCl pH 8.0, 1 mg/mL bovine serum albumin (Sigma-Aldrich; A6003-10G). Different peptides were immobilized on separate streptavidin-coated biosensors (FortéBio; cat. no. 18-5019). For each peptide sequence, sensors loaded with phosphorylated or unphosphorylated peptides were assayed in parallel, and the peptide concentrations (50−200 nM) and time of loading were controlled to achieve essentially the same level of peptide signal loaded, regardless of phosphorylation status (e.g., Figure S1). Recombinant S. cerevisiae Ess1 protein was purified from Escherichia coli as described ([Li et al. 2005]). Ess1 was incubated with peptide-loaded and control (no peptide) biosensors to measure kinetics of Ess1/peptide association, and sensors were moved to buffer alone to measure dissociation kinetics. To correct for low but significant nonspecific binding of Ess1 to sensors, data from a sensor without peptide within the same experiment were subtracted for each concentration of Ess1 used. For direct comparison of Ess1 binding to different peptides (Figure 6), signals were normalized for the levels of sensor-loaded peptide (0.2−0.5 nm) between sequential runs within the experiment. Data were analyzed using FortéBio Data Analysis software (Versions 6.4), and by linear and nonlinear regression in Prism (GraphPad, version 4).
To determine whether Ess1 interacts directly with Swi6 and Whi5, we conducted binding assays by using purified Ess1 protein and phospho-Ser-Pro or Ser-Pro peptides corresponding to the NLS motif of Swi6 and both NLS and NES motifs of Whi5. Binding was assayed using BLI ([Shah and Duncan 2013]). In brief, biotinylated peptides corresponding to the NLS or NES motifs were immobilized on streptavidin-coated sensors and binding of purified Ess1 protein was measured using BLI. Ess1 protein binding to immobilized peptide changes the optical interference at the sensor surface, measured as nm of spectral shift. Using this approach, we monitored the kinetics of binding and dissociation of Ess1. […] Binding was dependent on Ess1 concentration (3, 10, and 30 μM were used).
Figure 6 In vitro binding of Ess1 to Swi6 and Whi5 peptides. Kinetics for binding and dissociation of purified Ess1 protein with NLS and NES peptides were monitored using biolayer interferometry (BLI). Sensor-immobilized peptides: (A) carboxy-terminal domain (CTD) of RNA polymerase II (RNAPII), (B) Swi6-NLS, (C) Whi5-NLS, and (D) Whi5-NES. Data for phosphorylated peptides (P) are shown in black, unphosphorylated peptides (Un) in blue, and fitting curves are shown in red. Biotinylated peptides were loaded on individual streptavidin sensors, followed by a wash to remove unbound peptide. To measure Ess1 binding, sensors were transferred from buffer alone to buffer containing 3, 10, or 30 μM Ess1 protein (time zero) as indicated. After 300 sec, sensors were transferred to fresh buffer (without Ess1) to monitor Ess1 dissociation. Examples of raw data for these experiments, including the peptide-loading step and control sensors with no peptide are shown in Figure S1.
Table S4 Fitting Results for BLI Kinetic Assays
Peptide ka (M-1s-1) ±SD kd (s-1) ±SD %Rmax ±SD
Summary of results for fitting curves of BLI kinetic data (Fig. 6). The dissociation rate (kd) is an average (±standard deviation
(SD)) for fits at 3 concentrations of each peptide (3, 10, 30 µM). […]

[1] = estimated from binding isotherm F = E/(E + Kapp) with signal at 30 μM Ess1 relative to saturated signal of the cognate phosphorylated peptide, read-out: Kapp (estimated, unphosphorylated peptides)
[2] = 24°, 20 mM Tris-HCl pH 8.0, 1 mg/mL BSA, plateau binding responses vs Ess1 concentration (3, 10, 30 μM) fit to hyperbolic binding isotherm, read-out: KappEq (Equilibrium)

Compound | Ess1 binding (in words) | Kd [1] [µM] | Kd [2] [µM] | kon [M⁻¹ s⁻¹] | koff [s⁻¹]
H3 aa1-21 (Ser10-P): "nonsubstrate" peptide (H3 aa1-21) in the phosphorylated form (Ser10-P) [reference compound] | did not bind | – | – | – | –
CC[C@H](C)[C@H](NC(=O)CNC(=O)[C@@H]1CCCN1C(=O)[C@@H]1CCCN1C(=O)[C@H](CO)NC(=O)[C@@H]1CCCN1C(=O)[C@@H]1CCCN1C(=O)[C@H](CO)NC(=O)[C@@H]1CCCN1C(=O)[C@@H](NC(=O)CNC(=O)CNC(=O)[C@H](CO)NC(=O)CNC(=O)CNC(=O)CCCC[C@@H]1SC[C@@H]2NC(=O)N[C@@H]21)[C@@H](C)O)C(=O)O [Whi5-NLS] (Biotin-GGSGGTPSPPSPPGI-OH; N-terminus and C-terminus assumed) | – | > 25 | – | – | –
CC(C)C[C@H](NC(=O)[C@H](CCCNC(=N)N)NC(=O)[C@@H]1CCCN1C(=O)[C@H](CO)NC(=O)[C@@H]1CCCN1C(=O)[C@H](CO)NC(=O)[C@H](CC(C)C)NC(=O)[C@H](Cc1ccccc1)NC(=O)CNC(=O)CNC(=O)[C@H](CO)NC(=O)CNC(=O)CNC(=O)CCCC[C@@H]1SC[C@@H]2NC(=O)N[C@@H]21)C(=O)N[C@@H](CCCNC(=N)N)C(=O)N[C@@H](CO)C(=O)N1CCC[C@H]1C(=O)N1CCC[C@H]1C(=O)N[C@H](C(=O)O)[C@@H](C)O [Whi5-NES] (Biotin-GGSGGFLSPSPRLRSPPT-OH; N-terminus and C-terminus assumed) | – | > 1500 | – | – | –
CC(C)C[C@H](NC(=O)[C@H](CCCNC(=N)N)NC(=O)[C@@H]1CCCN1C(=O)[C@H](COP(=O)(O)O)NC(=O)[C@@H]1CCCN1C(=O)[C@H](COP(=O)(O)O)NC(=O)[C@H](CC(C)C)NC(=O)[C@H](Cc1ccccc1)NC(=O)CNC(=O)CNC(=O)[C@H](CO)NC(=O)CNC(=O)CN)C(=O)N[C@@H](CCCNC(=N)N)C(=O)N[C@@H](COP(=O)(O)O)C(=O)N1CCC[C@H]1C(=O)N1CCC[C@H]1C(=O)N[C@H](C(=O)O)[C@@H](C)O [Whi5-NES-P] (H-GGSGGFL[pS]P[pS]PRLR[pS]PPT-OH) | – | – | 1.13 ± 0.18 | 17500 | 0.0503
C[C@@H](O)[C@H](NC(=O)[C@@H]1CCCN1C(=O)[C@H](CO)NC(=O)[C@H](Cc1ccc(O)cc1)NC(=O)[C@H](CO)NC(=O)CNC(=O)CNC(=O)[C@H](CO)NC(=O)CNC(=O)CNC(=O)CCCC[C@@H]1SC[C@@H]2NC(=O)N[C@@H]21)C(=O)N[C@@H](CO)C(=O)N1CCC[C@H]1C(=O)N[C@@H](CO)C(=O)N[C@@H](Cc1ccc(O)cc1)C(=O)N[C@@H](CO)C(=O)O [CTD, reference compound] (Biotin-GGSGGSYSPTSPSYS-OH; N-terminus and C-terminus assumed) | very little binding | > 300 | – | – | –
C[C@@H](O)[C@H](NC(=O)[C@@H]1CCCN1C(=O)[C@H](CO)NC(=O)[C@H](Cc1ccc(O)cc1)NC(=O)[C@H](CO)NC(=O)CNC(=O)CNC(=O)[C@H](CO)NC(=O)CNC(=O)CN)C(=O)N[C@@H](COP(=O)(O)O)C(=O)N1CCC[C@H]1C(=O)N[C@@H](CO)C(=O)N[C@@H](Cc1ccc(O)cc1)C(=O)N[C@@H](CO)C(=O)O [CTD-P, reference compound] (H-GGSGGSYSPT[pS]PSYS-OH) | – | – | 1.65 ± 0.06 | 27100 | 0.0923
H3 aa1-21 unphosphorylated: "nonsubstrate" peptide (H3 aa1-21) in the unphosphorylated form [reference compound] | did not bind | – | – | – | –
CC[C@H](C)[C@H](NC(=O)CNC(=O)[C@@H]1CCCN1C(=O)[C@@H]1CCCN1C(=O)[C@H](COP(=O)(O)O)NC(=O)[C@@H]1CCCN1C(=O)[C@@H]1CCCN1C(=O)[C@H](COP(=O)(O)O)NC(=O)[C@@H]1CCCN1C(=O)[C@@H](NC(=O)CNC(=O)CNC(=O)[C@H](CO)NC(=O)CNC(=O)CN)[C@@H](C)O)C(=O)O [Whi5-NLS-P] (H-GGSGGTP[pS]PP[pS]PPGI-OH) | – | – | 0.48 ± 0.46 | 22800 | 0.0722
CC(C)C[C@H](NC(=O)[C@H](CCC(=O)O)NC(=O)[C@H](CCCNC(=N)N)NC(=O)[C@H](CO)NC(=O)CNC(=O)CNC(=O)[C@H](CO)NC(=O)CNC(=O)CNC(=O)CCCC[C@@H]1SC[C@@H]2NC(=O)N[C@@H]21)C(=O)NCC(=O)N[C@@H](CO)C(=O)N1CCC[C@H]1C(=O)N[C@@H](CC(C)C)C(=O)N[C@@H](CCCCN)C(=O)N[C@@H](CCCCN)C(=O)O [Swi6-NLS] (Biotin-GGSGGSRELGSPLKK-OH; N-terminus and C-terminus assumed) | – | > 100 | – | – | –
CC(C)C[C@H](NC(=O)[C@H](CCC(=O)O)NC(=O)[C@H](CCCNC(=N)N)NC(=O)[C@H](CO)NC(=O)CNC(=O)CNC(=O)[C@H](CO)NC(=O)CNC(=O)CN)C(=O)NCC(=O)N[C@@H](COP(=O)(O)O)C(=O)N1CCC[C@H]1C(=O)N[C@@H](CC(C)C)C(=O)N[C@@H](CCCCN)C(=O)N[C@@H](CCCCN)C(=O)O [Swi6-NLS-P] (H-GGSGGSRELG[pS]PLKK-OH) | – | – | 10.1 ± 5.1 | 25100 | 0.254
